# Several values for one entry are separate records, joined by “and”; a condition that tells them apart may be missing. Equal entries are not always repeated.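 How tested: cells in 96-well plates exposed to compound for 48 hours at five concentrations. GI50: concentration for 50% inhibition of growth. TGI: total growth inhibition.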
# Legend:
# Assay in all cases: NCI-60 cell line screen, 48 h
# MDA-MB-435 = tested on: MDA-MB-435
# BT-549 breast = tested on: BT-549 breast
# MOLT-4 leukemia = tested on: MOLT-4 leukemia
# SNB-19 CNS = tested on: SNB-19 CNS
# KM12 colon = tested on: KM12 colon
# HT29 colon = tested on: HT29 colon
# SR leukemia = tested on: SR leukemia
# T-47D breast = tested on: T-47D breast
# NCI-H522 lung = tested on: NCI-H522 lung
# SNB-75 CNS = tested on: SNB-75 CNS
SMILES,GI50 (MDA-MB-435),TGI (MDA-MB-435),GI50 (BT-549 breast),TGI (BT-549 breast),GI50 (MOLT-4 leukemia),TGI (MOLT-4 leukemia),GI50 (SNB-19 CNS),TGI (SNB-19 CNS),GI50 (KM12 colon),TGI (KM12 colon),GI50 (HT29 colon),TGI (HT29 colon),GI50 (SR leukemia),TGI (SR leukemia),GI50 (T-47D breast),TGI (T-47D breast),TGI (NCI-H522 lung),TGI (SNB-75 CNS),GI50 (NCI-H522 lung),GI50 (SNB-75 CNS)
O=C(O)CC(S)C(=O)O.[Li+].[Sb] (stereo unspecified),> 100 µM,> 100 µM,> 100 µM,> 100 µM,64.8 µM,> 100 µM,> 100 µM,> 100 µM,> 100 µM,> 100 µM,88.6 µM,> 100 µM,32.9 µM,> 100 µM,> 100 µM,> 100 µM,,,,
O=[N+]([O-])c1cc(C(F)(F)F)cc2n[se]nc12,,4.78 µM,,7.52 µM,,> 45.2 µM,,29.5 µM,,20.3 µM,,21.9 µM,,4.39 µM,,10.4 µM,6.54 µM,19.8 µM,,
CN(CCCCCCCCNc1ccnc2ccccc12)Cc1ccc(-c2ccc(-c3ccc(C#N)cc3)s2)cc1,1.19 µM,2.5 µM,1.44 µM,3.2 µM,0.368 µM,2.51 µM,1.31 µM,2.79 µM,0.667 µM,2.17 µM,0.318 µM,1.77 µM,0.083 µM,0.35 µM,0.881 µM,3.16 µM,3.36 µM,2.68 µM,1.35 µM,1.35 µM
COC(=O)c1cc2c([nH]c3ccccc32)c(-c2nc3ccccc3cc2CO)n1,> 100 µM,> 100 µM,> 100 µM,> 100 µM,> 100 µM,> 100 µM,> 100 µM,> 100 µM,> 100 µM,> 100 µM,> 100 µM,> 100 µM,> 100 µM,> 100 µM,> 100 µM,> 100 µM,> 100 µM,> 100 µM,73 µM,40.1 µM
COc1cc2c(cc1OC)-c1c(c3ccc([N+](=O)[O-])cc3c(=O)n1CCCN=[N+]=[N-])C2=O,> 100 µM,> 100 µM,> 100 µM,> 100 µM,23.3 µM,> 100 µM,> 100 µM,> 100 µM,> 100 µM,> 100 µM,> 100 µM,> 100 µM,0.509 µM,3.68 µM,> 100 µM,> 100 µM,> 100 µM,> 100 µM,11.7 µM,86.2 µM
O=C(CS(=O)c1nc2ccccc2nc1-c1ccccc1)Nc1ccc(Cl)cc1 (stereo unspecified),18.1 µM,41.4 µM,1.33 µM,53.1 µM,24.4 µM,69.3 µM,38.4 µM,> 100 µM,21.7 µM,55.2 µM,48.5 µM,> 100 µM,18.7 µM,47.6 µM,32.7 µM,> 100 µM,60.1 µM,> 100 µM,18.6 µM,> 100 µM
COc1ccccc1-c1ccc2c(N)c(C(=O)c3ccc4c(c3)OCO4)sc2n1,2.27 µM,9.54 µM,7.21 µM,30.2 µM,4.98 µM,> 100 µM,7.97 µM,30.2 µM,4.46 µM,23.3 µM,,,2.99 µM,31.1 µM,3.39 µM,14.4 µM,19.7 µM,15.6 µM,4.32 µM,3.27 µM
Cc1cnc(-c2ccc(-c3ccc(NC(=O)Nc4cccc(C(F)(F)F)c4)cc3F)c3c2C(=O)NC3)[nH]1,12.6 µM,> 47.5 µM,10.8 µM,49.1 µM,1.37 µM,> 53.4 µM,17.4 µM,> 53.4 µM,< 0.01 µM,16.2 µM,0.853 µM,> 44.7 µM,0.0862 µM,> 59.9 µM,12.7 µM,33.5 µM,42.7 µM,25.5 µM,15.4 µM,1.29 µM
CCN(CC)CCOc1ccc(NC(=O)C(C(C)C)N2C(=O)/C(=C/c3ccc(Br)cc3)SC2=S)cc1 (stereo unspecified),2.1 µM,4.41 µM,14.4 µM,28.5 µM,2.68 µM,9.38 µM,2.3 µM,6.09 µM,3.19 µM,11.3 µM,2.88 µM,8.51 µM,2.16 µM,6.43 µM,3.63 µM,19 µM,4.55 µM,21.1 µM,2.03 µM,7.82 µM
COc1ccc2c(c1)C(=O)/C(=C/c1cccc(OCC(=O)c3ccc([N+](=O)[O-])cc3)c1)CO2,2.32 µM,7.11 µM,1.91 µM,4.85 µM,3.03 µM,17.9 µM,12.4 µM,25.4 µM,1.56 µM,3.26 µM,1.93 µM,4.6 µM,1.15 µM,12.9 µM,1.65 µM,4.54 µM,9.41 µM,8.09 µM,3.5 µM,1.83 µM
N#Cc1ccc(O)c(C2=NCC(c3ccc(-c4ccccc4)cc3)O2)c1 (stereo unspecified),0.665 µM,51.6 µM,1.37 µM,16.1 µM,0.482 µM,27.7 µM,0.489 µM,26.4 µM,0.462 µM,28.7 µM,0.866 µM,24.1 µM,0.529 µM,> 100 µM,0.565 µM,24.1 µM,10.6 µM,14.4 µM,0.4 µM,0.625 µM
N#Cc1ccc(C(=O)c2cnn(-c3ccc(F)cc3)c2N)cc1,> 25 µM,> 25 µM,> 25 µM,> 25 µM,> 25 µM,> 25 µM,> 25 µM,> 25 µM,> 25 µM,> 25 µM,> 25 µM,> 25 µM,> 25 µM,> 25 µM,> 25 µM,> 25 µM,> 25 µM,> 25 µM,> 25 µM,> 25 µM
CC(=O)OCC1OC([S-])C(OC(C)=O)C(OC(C)=O)C1OC(C)=O.[Au+].c1ccc(CN2[CH-]N(Cc3ccccc3)C(c3ccccc3)=C2c2ccccc2)cc1,2.94 µM and 0.86 µM,10.4 µM and 3.36 µM,2.03 µM and 0.375 µM,4.32 µM and 2.69 µM,3.29 µM and 0.399 µM,,1.7 µM and 0.3 µM,3.18 µM and 1.18 µM,4.32 µM and 0.98 µM,16.9 µM and 5.14 µM,3.38 µM and 1.02 µM,12.6 µM and 4.47 µM,2.7 µM and 0.364 µM,8.26 µM and 47.5 µM,1.72 µM and 0.417 µM,3.81 µM and 2.75 µM,4.7 µM and 1.56 µM,7.21 µM and 4.4 µM,2.03 µM and 0.551 µM,1.83 µM and 0.412 µM
O=C1/C=C/[C@@H](O)[C@@H]2C[C@@H](O)C[C@H]2/C=C/CCC[C@H](CCc2ccc(NC(=S)Nc3ccc4c(c3)C(=O)OC43c4ccc(O)cc4Oc4cc(O)ccc43)cc2)O1,0.377 µM,> 100 µM,0.451 µM,73.7 µM,0.432 µM,4.07 µM,0.59 µM,> 100 µM,0.322 µM,0.971 µM,0.365 µM,3.61 µM,0.517 µM,> 100 µM,1.39 µM,76 µM,5.24 µM,> 100 µM,1.6 µM,0.252 µM
COc1ccc(-c2nsc3c2NC(=O)CC3c2cccc(F)c2)cc1 (stereo unspecified),0.827 µM,4.07 µM,7.77 µM,> 100 µM,5 µM,> 100 µM,5.91 µM,> 100 µM,2.48 µM,> 100 µM,3.11 µM,> 100 µM,2.44 µM,> 100 µM,4.81 µM,> 100 µM,> 100 µM,86.2 µM,3.39 µM,4.78 µM
C=C1C(=O)O[C@H]2C3OC3(C)CC/C=C(/C(=O)OC)[C@@H](OC(C)=O)[C@H](OC(=O)C3(C)OC3C)[C@H]12 (stereo partly specified),,3.95 µM and 4.99 µM,,2.27 µM,216 nM and 0.323 µg/mL,938 nM and 1.17 µg/mL,23.1 µg/mL,> 7.5 µM and 53.5 µg/mL,9.13 µM and 370 nM and 2.36 µg/mL,1.64 µM and 7.08 µg/mL,1.29 µM and 1.06 µM and 1.32 µg/mL,2.55 µM and 2.3 µM and 4.03 µg/mL,0.248 µM,0.664 µM and 1.27 µM,4.6 µM,,0.242 µM and 0.241 µM,21.8 µM and 4.68 µg/mL,0.0891 µM and 0.122 µM,5.54 µM and 11.2 µM and 2.27 µg/mL
CC[C@H](C)C(=O)O[C@H]1CCC=C2C=C[C@H](C)[C@H](CC[C@@H]3C[C@@H](O)CC(=O)O3)[C@H]21,7.51 µM,> 100 µM,14.4 µM,> 78.5 µM,,> 100 µM,3.54 µM,> 100 µM,,> 100 µM,28 µM,> 100 µM,3.79 µM,> 59.4 µM,21.9 µM,> 100 µM,39.6 µM,4.68 µM,2.41 µM,1.37 µM
Fc1ccc(-c2c(-c3ccncc3)[nH]c3cccnc23)cc1,> 25 µM,> 25 µM,> 25 µM,> 25 µM,> 25 µM,> 25 µM,> 25 µM,> 25 µM,> 25 µM,> 25 µM,8.18 µM,> 25 µM,> 18.9 µM,> 25 µM,13.4 µM,> 25 µM,> 25 µM,> 25 µM,> 19.8 µM,> 17.8 µM
Cc1c(C(=O)/C=C/c2ccc(Cl)cc2)nnn1-c1ccnc2c(C(F)(F)F)cccc12,> 100 µM,> 100 µM,> 100 µM,> 100 µM,19.3 µM,68.3 µM,33.9 µM,> 100 µM,77.1 µM,> 100 µM,8.24 µM,> 100 µM,8.71 µM,55.2 µM,> 100 µM,> 100 µM,> 100 µM,36.5 µM,27.6 µM,15.9 µM
COc1ccc(C2CC(c3ccc4ccccc4c3)=NN2c2nc(O)c(C3=c4cc(Cl)ccc4=NC3=O)s2)cc1 (stereo unspecified),0.0215 µM and < 0.005 µM,0.0483 µM and < 0.005 µM,0.0499 µM and < 0.005 µM,,0.0329 µM and < 0.005 µM,,0.034 µM and < 0.005 µM,1.18 µM,0.0236 µM and < 0.005 µM,,0.0307 µM and < 0.005 µM,0.771 µM and 0.556 µM,0.0338 µM and < 0.005 µM,< 0.005 µM,0.0223 µM and < 0.005 µM,,0.0402 µM and < 0.005 µM,0.0408 µM,0.0183 µM and < 0.005 µM,0.0171 µM
CN(CO)c1nc(N(C)CO)nc(N(C)CO)n1,,40.3 µM,,43.1 µM and 36.9 µM,23.5 µM,77 µM and 128 µM,29.8 µM,45.3 µM and 50.4 µM,,47.7 µM and 31.8 µM,26.3 µM,71.2 µM and 144 µM,28.4 µM,> 77.1 µM and 1080 µM,25 µM,67.7 µM and 211 µM,43.9 µM and 53.7 µM,53.3 µM and 32 µM,,16.4 µM
O=c1[nH][nH]c(=O)c2c(O)c(-c3ccccc3)ncc12,44.1 µM and 205 µM,> 1000 µM,32.9 µM and 47.4 µM,357 µM,35 µM and 173 µM,> 1000 µM,47.6 µM and 71.6 µM,841 µM,34.2 µM and 53.1 µM,482 µM,38.4 µM and 177 µM,674 µM,39.6 µM and 118 µM,554 µM,27.6 µM and 60.5 µM,95.5 µM and 843 µM,376 µM,353 µM,42.3 µM and 70.2 µM,35.4 µM and 37.6 µM
CCCCNP1(NCCCC)=NP(NCCCC)(NCCCC)=NP(NCCCC)(NCCCC)=NP(NCCCC)(NCCCC)=N1,0.931 µM,6.51 µM,4.08 µM,15.3 µM,0.491 µM,3.99 µM,1.12 µM,27.9 µM,0.355 µM,4.27 µM,0.213 µM,17.7 µM,,,0.26 µM,3.07 µM,4.3 µM,15.8 µM,0.287 µM,3.13 µM
C#Cc1cccc(Nc2ncnc3ccc(-c4cnc(N)nc4)cc23)c1,3.58 µM,15.6 µM,2.07 µM,9.37 µM,,,3.15 µM,21.5 µM,4.57 µM,20.8 µM,2.36 µM,14.6 µM,2.58 µM,> 100 µM,0.664 µM,4.62 µM,11.8 µM,3.96 µM,2.11 µM,0.643 µM

# Source: PubChem BioAssay (NCI)
